The subject of the test is MSSA ATCC 25923. Briefly: Disk diffusion assay (zone of inhibition). Format: cell-based, Staphylococcus aureus. Conditions: for Effect of addition of 5% P80 on zone diameter (average increase): MSSA ATCC 25923, disks containing 30 μg; for zone of inhibition at 30 µg/disc: Staphylococcus aureus, 30 μg in disk, without prediffusion, average of 2 disks. An excerpt: The study was designed to identify conditions that improve oritavancin diffusion in agar and consequently yield a zone diameter ≧15 mm for the CLSI quality control strain MSSA ATCC 25923. Excipients that increased the disk diffusion of oritavancin in agar relative to disks containing only oritavancin were identified and selected for further study. […] A prediffusion step at room temperature was introduced to maximize oritavancin diffusion prior to initiation of bacterial growth. In this step, the antimicrobial disks were placed on agar plates seeded with a bacterial isolate and incubated at room temperature for 3 hours. Plates were then incubated overnight at 37° C. Zone diameters around the disks in which bacterial growth was inhibited were measured with a ruler and reported in millimeters.
Ethanol-sterilized Whatman paper disks (6 mm diameter) were allowed to dry then impregnated with 20 microliters of oritavancin solution containing total amounts ranging from 90 to 360 micrograms. Disks were allowed to dry at room temperature for various times prior to use.
Bacterial suspensions were prepared and adjusted to an optical density of 0.1 at 600 nm. […] The plate was swabbed a second time, perpendicular to the orientation of the first swab. To assess the impact of prediffusion on diameter of inhibition zones, two disks were immediately placed on one half of the plate and the plate was incubated for 3 hours at room temperature. After 3 hours, two additional disks were placed on the other half of the plate then the plate was incubated overnight at 37° C. Zone diameters were measured with a ruler and reported in millimeters. […]
Oritavancin powder was dissolved in freshly-prepared solutions of the indicated excipients at concentrations of 0.625, 1.25, 2.5, 5, and 10 mg/ml (adjusted for potency based on lot 875561L00 purity of 83.1%) by vortexing for a minimum of 5 minutes. Oritavancin solutions in the various excipients, while not visually clear, were free from any apparent particulates as assessed visually. Sterile Oxoid blank disks were impregnated with 20 μl of these oritavancin solutions, resulting in oritavancin disk loads ranging from 12.5 to 200 μg. Unless indicated otherwise, disks were allowed to dry overnight at room temperature prior to use.
[…] Swabbing was continued at a right angle and then at an oblique angle to the first and second swabs. Disks were placed upon the seeded plates with sterile forceps. Plates were then incubated overnight at 37° C. and inhibition zone diameters were measured with a ruler and reported in millimeters.

Where [1] appears, read: read-out: Average zone diameter, S. aureus ATCC 25923, +5% P80.
Where [2] appears, read: read-out: Average zone diameter, S. aureus ATCC 25923, Control (without P80).

Where two headings read alike, the source gives them in different places.

As to `CCCCCCCCCC(=O)N[C@@H](Cc1c[nH]c2ccccc12)C(=O)N[C@H](CC(N)=O)C(=O)N[C@@H](CC(=O)O)C(=O)N[C@@H]1C(=O)NCC(=O)N[C@@H](CCCN)C(=O)N[C@@H](CC(=O)O)C(=O)N[C@H](C)C(=O)N[C@@H](CC(=O)O)C(=O)NCC(=O)N[C@H](CO)C(=O)N[C@@H]([C@H](C)CC(=O)O)C(=O)N[C@@H](CC(=O)c2ccccc2N)C(=O)O[C@@H]1C` [Daptomycin], the “Effect of addition of 5% P80 on zone diameter (average increase)” value is recorded as “no effect”. Further, for the setting “S. aureus ATCC 25923, +5% P80, read-out: Average zone diameter”, the zone of inhibition at 30 µg/disc stood at 18 mm. For the same compound, the zone of inhibition at 30 µg/disc (S. aureus ATCC 25923, Control (without P80), read-out: Average zone diameter) is 18.5 mm.

As for `CN[C@H](CC(C)C)C(=O)N[C@H]1C(=O)N[C@@H](CC(N)=O)C(=O)N[C@H]2C(=O)N[C@H]3C(=O)N[C@H](C(=O)N[C@H](C(=O)O)c4cc(O)cc(O)c4-c4cc3ccc4O)[C@H](O)c3ccc(c(Cl)c3)Oc3cc2cc(c3O[C@@H]2O[C@H](CO)[C@@H](O)[C@H](O)[C@H]2O[C@H]2C[C@](C)(N)[C@H](O)[C@H](C)O2)Oc2ccc(cc2Cl)[C@H]1O` [Vancomycin], the “Effect of addition of 5% P80 on zone diameter (average increase)” value is listed as “no effect”. Also, the zone of inhibition at 30 µg/disc under setting [1] came to 17.5 mm. In addition, the zone of inhibition at 30 µg/disc under setting [2] was 17.5 mm.

On to `CCCCCCCCCCNCCN[C@@]1(C)C[C@H](O[C@H]2[C@H](Oc3c4cc5cc3Oc3ccc(cc3Cl)[C@@H](O)[C@@H](NC(=O)[C@@H](CC(C)C)NC)C(=O)N[C@@H](CC(N)=O)C(=O)N[C@H]5C(=O)N[C@H]3C(=O)N[C@H](C(=O)N[C@H](C(=O)O)c5cc(O)c(CNCP(=O)(O)O)c(O)c5-c5cc3ccc5O)[C@H](O)c3ccc(c(Cl)c3)O4)O[C@H](CO)[C@@H](O)[C@@H]2O)O[C@@H](C)[C@H]1O` [Telavancin], for which the zone of inhibition at 30 µg/disc runs as follows: under setting [1], 18 mm; under setting [2], 16.5 mm.

These data come from US8815535B2, “Disk diffusion assay for oritavancin” (The Medicines Company, priority 2011, dated 2014).
